According to patent US20160151458A1, “Use Of Unacylated Ghrelin, Fragments And Analogs Thereof As Antioxidant” (ALIZE PHARMA SAS, priority 2013, published 2016):
Ends that are not written are not given here. * marks the point of attachment. Octanoyl = CCCCCCCC(=O)*

Tests used:
[1] = tested on: primary SCs; experiment: In-vitro ischemia of primary SCs from normo-perfused muscles; type: cell-based, C57BL/6J mice; conditions: SB202190 1 μmol/L added
Procedure: (§1) SCs were isolated from gastrocnemius muscles of C57BL/6J wild type mice subjected to ischemia or C57BL/6J mice lacking the GHSR1a and ghrelin genes (10 mice, kind gift of Professor M. Tschöp)^39. To obtain SCs, muscle samples were subjected to enzymatic digestion as described^45. In selected experiments, SCs were recovered from normo-perfused muscles and subjected to in-vitro ischemia in presence of saline, AG (1 μmol/L) or UAG (1 μmol/L). In-vitro ischemia was induced by incubating cells in DMEM+2% FCS at 5% CO2/95% N2 humidified atmosphere, yielding 1% O2 concentrations for 24 h^18. The in-vitro ischemia was also performed in the presence of SB202190 (1 μmol/L).
(§2) SC cell-cycle progression was evaluated by evaluating the percentage of PCNA-positive cells or by FACS analysis as previously described^46. The percentage of cells in each cell cycle phase was determined by ModFit LT software (Verity Software House. Inc, topsham, ME, USA). Celss proliferation was also assayed by evaluating the percentage of PCNA-positive cells by FACS analysis.
(§3) Cells were lysed and protein detection was obtained as previously described^47. Cells were lysed (50 mmol/L Tris HCl [pH 8.3], 1% Triton X-100, 10 mmol/L PMSF, 100 U/ml aprotinin, 10 μmol/L leupeptin) and protein concentrations were obtained as previously described^47. […] Densitometric analysis was used to calculate the differences in the fold induction of protein levels and normalized to tubulin, a actin or p38MAPK content. Values are reported as relative amount
(§4) Intracellular ROS production was evaluated using DCF-DA (5-(and-6)-carboxy-2′,7′-dichlorofluorescein diacetate, […] final concentration) (Molecular Probe, Invitrogen) assay as previously described^23. The formation of TBARS was determined in muscles using the OXI-TEK kit (ZeptoMetrix Corp.) and a luminescence spectrometer (Bio-Rad Laboratories, Hercules, Calif.) with excitation set at 530 nm, emission at 550 nm to measure in-vivo oxidative stress levels^33.
Total RNA was isolated using TRIzol reagent (Invitrogen) from SCs recovered from muscles of treated animals or from SCs subjected to in-vitro ischemia. miR-221/222 expression was evaluated by qRT-PCR as previously described^48. Loss-of-function experiments were performed in SCs transfected for 48 h with anti-miRNA negative control, anti-miR-221/222 antagonists (Applied Biosystem, Foxter Cyto CA, USA), according to the manufacturer's instructions^48.

[2] = tested on: SCs from double KO mice; experiment: In-vitro ischemia of SCs from double KO mice lacking the GHSR1a and ghrelin genes; type: cell-based, C57BL/6J mice lacking the GHSR1a and ghrelin genes
Procedure: as §1, §2, §3, §4

[3] = tested on: unilateral hind limb ischemia in C57BL/6J mice (ischemic gastrocnemius muscle); experiment: Murine hind-limb ischemia model; type: in vivo
Procedure: Male C57BL/6J mice (Charles River Lab., Wilmington, Mass., USA) were anesthetized and unilateral hind limb ischemia was induced as described^42. The normo-perfused contralateral limb of each mouse was used as an internal control. After hind-limb ischemia, animals (18 mice per group) were treated by intra-peritoneal injection daily from 0 to day 21 with either saline, AG (100 μg/kg) or UAG (100 μg/kg). In selected experiments, mice received intramuscular injections of pre-miR oligonucleotides (5 mice/group). To induce toxic damage, 100 μl of 1% barium chloride (BaCl2, Sigma Aldrich) was injected unilaterally into the hind limb (9 mice). Mice were treated according to European Guidelines and policies as approved by the University of Turin Ethical Committee.
Semiquantitative estimation (by repeated measures analyzed with ANOVA and Newman-Keuls Multiple Comparison test) of foot damage was performed serially using the following classification: 3=dragging of foot (foot necrosis), 2=no dragging but no plantar flexion (foot damage), 1=plantar flexion but no toe flexion (toe damage), and 0=flexing the toes to resist gentle traction on the tail (no damage)^43.
Gastrocnemius muscle sections from ischemic or normo-perfused limbs were stained with hematoxylin and eosin for histological analysis. The proportion of fibers with central nuclei (regenerating fibers) was measured by MetaMorph software (Life Sciences Research Imaging Systems) in the injured area and the cross-sectional areas of the fibers in the injured and non-injured areas. For IF analysis, muscle sections were processed as described previously^44. The number of cells expressing the indicated markers or CD31 positive vessels was evaluated as previously described^34.
as §4

[4] = tested on: glucose, insulin and lipid metabolisms; conditions: cited from earlier work; for retention of the activity of UAG full length: U.S. Pat. Nos. 8,222,217 and 8,318,664; for smallest fragment retaining UAG activity: earlier patents
[5] = tested on: C2C12 mouse muscular cell line; experiment: ROS production (DCF-DA) in C2C12 cells under oxidative stress; type: cell-based; conditions: 1 μmol/L; stress by hypoxia (1% O2), AGEs, hyperglycemia (25 mM) or H2O2; FIG. 8
Procedure: Kinetic analysis of ROS production was evaluated by using DCF-DA (5-(and-6)-carboxy-2′,7′-dichlorofluorescein diacetate, 0.5 μmol/L final concentration) (Molecular Probe, Invitrogen) assay. C2C12 cells were cultured with 400 μg/ml Advanced Glycated End-product (AGE) or 25 mM glucose (high glucose HG) for 48 h, H2O2 (100 μM) for 2 h. In parallel experiments C2C12 cells were subjected to hypoxia (DMEM+2% FCS in a 5% CO2-95% N2 humidified atmosphere, yielding to 1% O2 concentrations for 24 h). UAG (1 μmol/L) AZP 531 (1 μmol/L) or AZP-502 (1 μmol/L) was added where indicated.

Oc1ccc(-c2nc(-c3ccncc3)c(-c3ccc(F)cc3)[nH]2)cc1 [SB202190, reference compound]
cell-cycle entry of SCs exposed to UAG ([1]; FIG. 5E): blocked cell-cycle entry | MyoD and myogenin expression in SCs exposed to UAG ([1]; FIG. 5F): prevented MyoD and myogenin expression

AG: 28 amino acid peptide with an n-octanoyl modification on the Ser3 residue; endogenous ligand of GHSR-1a (GSS(Octanoyl)FLSPEHQRVQQRKESKKPPAKLQPR; UniProt Q9UBU3 24-51, looked up) [reference compound]
SC cell-cycle progression ([2]; FIG. 5G): only UAG | p-p38/MAPK, Pax-7, MyoD, Myf5 and myogenin expression ([2]; FIGS. 5H, 5I): only UAG | protection against ischemia-induced damage (overall in vivo effect) ([3]; 100 μg/kg i.p. daily): failure to detect in vivo effects | foot damage (functional score) ([3]; 100 μg/kg i.p. daily from day 0, FIG. 1A): significantly higher | capillary density, ischemic vs contralateral control muscles of the same animals ([3]; 100 μg/kg i.p. daily, FIG. 1B): significantly lower capillary density than in contralateral control muscles | concentration of TBARS in ischemic muscles ([3]; FIG. 3A): Significant increases in the concentration of TBARS

EHQRVQ [UAG (8-13)]
retention of the activity of UAG full length [4]: retain the activity of UAG full length on glucose, insulin and lipid metabolisms

Glu-His-Gln-Arg (EHQR; listed as Homo sapiens) [UAG (8-11)]
retention of the activity of UAG full length [4]: retain the activity of UAG full length on glucose, insulin and lipid metabolisms | smallest fragment retaining UAG activity [4]: smallest UAG fragment to retain UAG activities

Glu-His-Gln-Arg-Val (EHQRV; listed as Homo sapiens) [UAG (8-12)]
retention of the activity of UAG full length [4]: retain the activity of UAG full length on glucose, insulin and lipid metabolisms

His-Gln-Arg (HQR; listed as Homo sapiens) [UAG (9-11)]
retention of the activity of UAG full length [4]: retain the activity of UAG full length on glucose, insulin and lipid metabolisms

His-Gln-Arg-Val (HQRV; listed as Homo sapiens) [UAG (9-12)]
retention of the activity of UAG full length [4]: retain the activity of UAG full length on glucose, insulin and lipid metabolisms | smallest fragment retaining UAG activity [4]: smallest UAG fragment to retain the biological activity of UAG

SPEHQRVQ [UAG (6-13)]
retention of the activity of UAG full length [4]: retain the activity of UAG full length on glucose, insulin and lipid metabolisms | protection against oxidative stress (ROS production) [5]: have a protective effect on C2C12 cells against oxidative stress

Ser-Pro-Glu-His-Gln-Arg-Val-Gln (cycl) (SPEHQRVQ; also: cyclic, closure not given here; listed as Homo sapiens) [UAG(6-13)cyclic]
protection against oxidative stress (ROS production) [5]: have a protective effect on C2C12 cells against oxidative stress
